This is an account of results in ChEMBL document CHEMBL5291721, “A preclinical secondary pharmacology resource illuminates target-adverse drug reaction associations of marketed drugs” (Nat Commun, 2023).

By AC50 is commonly meant the midpoint of the concentration-response curve, whichever way the signal moves.

Test [1] concerns the target T1, 5-hydroxytryptamine receptor 2C (Homo sapiens, UniProt P28335).
T1 sequence (P28335 whole entry): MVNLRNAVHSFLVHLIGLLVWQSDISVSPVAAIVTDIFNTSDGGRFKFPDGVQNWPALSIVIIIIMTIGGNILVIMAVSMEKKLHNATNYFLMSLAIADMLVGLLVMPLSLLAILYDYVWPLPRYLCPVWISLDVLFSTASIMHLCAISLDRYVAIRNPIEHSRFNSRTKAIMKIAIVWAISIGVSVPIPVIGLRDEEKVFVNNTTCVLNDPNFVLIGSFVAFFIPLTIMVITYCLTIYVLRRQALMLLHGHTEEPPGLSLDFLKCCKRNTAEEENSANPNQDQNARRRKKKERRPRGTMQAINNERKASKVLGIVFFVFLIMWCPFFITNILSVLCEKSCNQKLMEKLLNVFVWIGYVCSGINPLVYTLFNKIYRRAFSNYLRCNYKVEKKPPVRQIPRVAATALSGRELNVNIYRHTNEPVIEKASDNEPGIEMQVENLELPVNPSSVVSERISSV

The target of test [2] is T2, Alpha-1A adrenergic receptor (Homo sapiens, UniProt P35348).
T2 sequence (P35348 whole entry): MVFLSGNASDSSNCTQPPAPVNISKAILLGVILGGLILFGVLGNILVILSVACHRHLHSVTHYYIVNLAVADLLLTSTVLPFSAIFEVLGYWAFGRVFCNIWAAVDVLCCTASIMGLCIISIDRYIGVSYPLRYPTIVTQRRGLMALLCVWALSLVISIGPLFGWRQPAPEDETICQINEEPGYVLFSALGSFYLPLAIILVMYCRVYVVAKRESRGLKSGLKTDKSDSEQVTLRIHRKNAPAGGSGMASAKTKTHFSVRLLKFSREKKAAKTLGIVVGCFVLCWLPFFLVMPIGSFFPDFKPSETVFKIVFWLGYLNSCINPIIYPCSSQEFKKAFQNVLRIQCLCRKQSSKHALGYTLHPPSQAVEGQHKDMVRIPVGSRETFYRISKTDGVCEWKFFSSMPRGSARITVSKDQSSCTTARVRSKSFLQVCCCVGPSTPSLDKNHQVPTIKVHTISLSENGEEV
The class given is functional, cell-based.

The target in test [3] is T3, Muscarinic acetylcholine receptor M2 (Homo sapiens, UniProt P08172).
T3 sequence (P08172 whole entry): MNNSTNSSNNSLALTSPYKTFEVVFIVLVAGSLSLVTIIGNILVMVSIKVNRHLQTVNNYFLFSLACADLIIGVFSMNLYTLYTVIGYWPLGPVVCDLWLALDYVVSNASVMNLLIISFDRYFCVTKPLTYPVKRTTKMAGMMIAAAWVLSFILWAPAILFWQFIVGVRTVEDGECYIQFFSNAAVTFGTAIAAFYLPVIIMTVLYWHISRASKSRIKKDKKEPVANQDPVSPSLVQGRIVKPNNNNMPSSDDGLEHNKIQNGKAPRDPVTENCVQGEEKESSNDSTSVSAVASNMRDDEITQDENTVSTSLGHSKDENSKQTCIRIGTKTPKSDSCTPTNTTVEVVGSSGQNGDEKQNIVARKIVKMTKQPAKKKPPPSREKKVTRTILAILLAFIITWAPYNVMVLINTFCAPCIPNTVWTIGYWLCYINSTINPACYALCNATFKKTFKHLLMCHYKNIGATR
The class given is functional, cell-based.

Test [4] deals with Sodium-dependent noradrenaline transporter (Homo sapiens, UniProt P23975).
The target in a further test is Histamine H3 receptor (Homo sapiens, UniProt Q9Y5N1).
Test [5] has as its target Delta-type opioid receptor (Homo sapiens, UniProt P41143).
For another test, the target named is Histamine H2 receptor (Homo sapiens, UniProt P25021). The class given is functional, cell-based.
In a further test the target is T4, Endothelin-1 receptor (Homo sapiens, UniProt P25101).
T4 sequence (P25101 whole entry): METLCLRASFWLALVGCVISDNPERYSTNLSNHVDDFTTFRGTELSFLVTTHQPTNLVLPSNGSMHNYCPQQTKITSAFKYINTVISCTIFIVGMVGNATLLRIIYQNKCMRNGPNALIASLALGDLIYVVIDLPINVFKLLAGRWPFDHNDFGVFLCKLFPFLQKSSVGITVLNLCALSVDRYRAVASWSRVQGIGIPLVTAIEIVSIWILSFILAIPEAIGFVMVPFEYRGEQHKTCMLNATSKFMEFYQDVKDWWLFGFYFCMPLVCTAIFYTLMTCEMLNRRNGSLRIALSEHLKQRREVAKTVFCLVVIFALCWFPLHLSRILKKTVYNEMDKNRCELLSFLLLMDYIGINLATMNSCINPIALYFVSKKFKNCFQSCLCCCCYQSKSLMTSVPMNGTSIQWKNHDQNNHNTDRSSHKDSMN

For another test, the target named is T5, B2 bradykinin receptor (Homo sapiens, UniProt P30411).
T5 sequence (P30411 whole entry): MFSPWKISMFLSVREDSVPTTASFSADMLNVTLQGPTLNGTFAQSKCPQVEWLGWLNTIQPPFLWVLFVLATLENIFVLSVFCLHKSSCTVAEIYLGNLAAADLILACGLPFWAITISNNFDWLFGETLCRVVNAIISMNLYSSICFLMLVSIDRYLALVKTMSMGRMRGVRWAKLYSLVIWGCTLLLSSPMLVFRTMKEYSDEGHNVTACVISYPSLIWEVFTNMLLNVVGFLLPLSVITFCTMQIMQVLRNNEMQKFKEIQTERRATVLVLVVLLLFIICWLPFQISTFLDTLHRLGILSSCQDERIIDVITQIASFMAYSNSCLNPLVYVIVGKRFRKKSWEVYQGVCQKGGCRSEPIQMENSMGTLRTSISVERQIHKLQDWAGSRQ
Also: assay procedure not described here.

Chain of Histamine H2 receptor (P25021 whole entry): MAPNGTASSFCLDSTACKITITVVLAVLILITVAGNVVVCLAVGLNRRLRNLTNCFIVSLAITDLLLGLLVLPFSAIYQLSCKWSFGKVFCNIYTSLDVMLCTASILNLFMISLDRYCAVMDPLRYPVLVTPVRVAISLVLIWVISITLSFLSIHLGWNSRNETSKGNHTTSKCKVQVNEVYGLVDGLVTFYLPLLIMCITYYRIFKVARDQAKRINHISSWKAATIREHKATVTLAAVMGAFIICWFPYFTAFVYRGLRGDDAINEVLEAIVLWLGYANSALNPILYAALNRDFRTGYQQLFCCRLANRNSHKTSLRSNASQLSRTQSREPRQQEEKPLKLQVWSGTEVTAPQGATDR
Chain of Delta-type opioid receptor (P41143 whole entry): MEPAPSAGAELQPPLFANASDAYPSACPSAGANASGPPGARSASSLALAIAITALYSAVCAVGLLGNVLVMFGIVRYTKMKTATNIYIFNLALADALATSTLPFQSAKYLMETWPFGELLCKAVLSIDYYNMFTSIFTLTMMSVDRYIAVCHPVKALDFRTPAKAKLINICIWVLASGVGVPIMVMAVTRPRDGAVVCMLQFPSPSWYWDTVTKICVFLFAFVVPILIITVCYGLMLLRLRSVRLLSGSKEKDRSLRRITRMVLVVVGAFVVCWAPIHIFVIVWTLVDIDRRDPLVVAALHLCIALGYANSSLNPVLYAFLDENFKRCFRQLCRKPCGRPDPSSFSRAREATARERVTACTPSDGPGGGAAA
Chain of Histamine H3 receptor (Q9Y5N1 whole entry): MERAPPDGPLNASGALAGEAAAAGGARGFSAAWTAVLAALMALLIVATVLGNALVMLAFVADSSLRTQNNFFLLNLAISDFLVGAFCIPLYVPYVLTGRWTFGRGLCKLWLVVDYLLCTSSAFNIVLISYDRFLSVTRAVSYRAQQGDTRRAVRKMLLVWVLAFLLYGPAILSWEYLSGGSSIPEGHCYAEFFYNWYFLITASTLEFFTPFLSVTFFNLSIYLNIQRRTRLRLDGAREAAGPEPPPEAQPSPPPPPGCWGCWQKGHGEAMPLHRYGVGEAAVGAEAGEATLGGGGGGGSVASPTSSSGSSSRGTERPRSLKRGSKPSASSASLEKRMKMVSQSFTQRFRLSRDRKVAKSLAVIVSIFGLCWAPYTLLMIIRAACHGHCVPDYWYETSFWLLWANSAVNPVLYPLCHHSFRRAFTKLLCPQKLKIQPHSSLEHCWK
Chain of Sodium-dependent noradrenaline transporter (P23975 whole entry): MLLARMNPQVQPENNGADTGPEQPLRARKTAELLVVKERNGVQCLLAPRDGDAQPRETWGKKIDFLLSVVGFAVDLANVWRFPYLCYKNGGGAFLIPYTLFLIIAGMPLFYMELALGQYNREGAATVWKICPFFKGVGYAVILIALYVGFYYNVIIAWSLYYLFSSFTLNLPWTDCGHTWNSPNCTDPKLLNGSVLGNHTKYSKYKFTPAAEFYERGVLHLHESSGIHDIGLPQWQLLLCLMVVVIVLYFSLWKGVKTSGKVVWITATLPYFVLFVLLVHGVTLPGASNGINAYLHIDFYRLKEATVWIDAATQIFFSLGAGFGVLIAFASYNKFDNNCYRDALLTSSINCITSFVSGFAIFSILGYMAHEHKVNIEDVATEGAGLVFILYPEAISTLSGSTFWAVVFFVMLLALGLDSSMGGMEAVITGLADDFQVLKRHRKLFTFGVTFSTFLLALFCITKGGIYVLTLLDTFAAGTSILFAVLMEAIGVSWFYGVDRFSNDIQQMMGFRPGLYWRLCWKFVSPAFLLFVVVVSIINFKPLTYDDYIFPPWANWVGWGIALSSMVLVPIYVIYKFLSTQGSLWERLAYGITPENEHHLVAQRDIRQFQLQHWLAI

Regarding `CO/N=C(\C(=O)N[C@@H]1C(=O)N2C(C(=O)O)=C(CSc3nc(C)c(CC(=O)O)s3)CS[C@H]12)c1csc(N)n1` [CEFODIZIME], the concentration at half-maximal activity (AC50) (in test [1]; in test [2]; in [3]; in test [4]; on Histamine H3 receptor; in [5]) was above 30 µM throughout. Also, the AC50 on Histamine H2 receptor, at Endothelin-1 receptor and on B2 bradykinin receptor was above 30 µM each time.
For the compound `CO/N=C(\C(=O)N[C@@H]1C(=O)N2C(C(=O)[O-])=C(C[n+]3ccc(N)n3CCO)CS[C@H]12)c1csc(N)n1` [CEFOSELIS], the AC50 (in test [1]; in test [2]; in test [3]; in [4]; at Histamine H3 receptor; in [5]) was above 30 µM throughout. Also, the AC50 at Histamine H2 receptor, on Endothelin-1 receptor and on B2 bradykinin receptor was above 30 µM throughout.
`CC(=O)OCC1=C(C(=O)O)N2C(=O)[C@@H](NC(=O)Cc3cccs3)[C@H]2SC1` [CEPHALOTHIN]: the AC50 (in [1]; in test [2]; in [3]; in [4]; on Histamine H3 receptor; in test [5]) was above 30 µM throughout. The AC50 on Histamine H2 receptor, at Endothelin-1 receptor and on B2 bradykinin receptor was above 30 µM each time.
As for `CC1=C(C(=O)O)N2C(=O)[C@@H](NC(=O)[C@H](N)C3=CCC=CC3)[C@H]2SC1` [CEPHRADINE], the AC50 (in test [1]; in [2]; in [3]; in test [4]; at Histamine H3 receptor; in test [5]) was above 30 µM each time. In addition, the concentration at half-maximal activity (AC50) was above 30 µM on Histamine H2 receptor, above 30 µM on Endothelin-1 receptor and above 10 µM at B2 bradykinin receptor.
`CCCO[C@H]1[C@@H]([C@@H](COCc2ccc(Cl)cc2)OCc2ccc(Cl)cc2)OC(OCC)[C@@H]1O` (stereo partly specified) [CLOBENOSIDE]: the AC50 (in [1]; in test [2]; in [3]; in [4]; on Histamine H3 receptor; in test [5]) was above 30 µM each time. In addition, the AC50 at Histamine H2 receptor, at Endothelin-1 receptor and on B2 bradykinin receptor was above 30 µM throughout.
Turning to `CCc1ccc(C(=O)C(C)CN2CCCCC2)cc1` (stereo unspecified) [EPERISONE], the concentration at half-maximal activity (AC50) in test [1] is above 30 µM; in test [2] it was above 30 µM; in [3], 2.2 µM; in test [4] it was above 30 µM; at Histamine H3 receptor, 1.3 µM; in test [5], 19 µM. The AC50 on Histamine H2 receptor, at Endothelin-1 receptor and at B2 bradykinin receptor was above 30 µM in each case.
For `CCN1C(=O)NC(c2ccccc2)C1=O` (stereo unspecified) [ETHOTOIN], the concentration at half-maximal activity (AC50) (in test [1]; in [2]; in [3]; in test [4]; on Histamine H3 receptor; in [5]) was above 30 µM throughout. Besides, the AC50 at Histamine H2 receptor, on Endothelin-1 receptor and at B2 bradykinin receptor was above 30 µM in each case.
Regarding `CC(=O)OCC(=O)[C@@]1(O)CC[C@H]2[C@@H]3CCC4=CC(=O)CC[C@]4(C)[C@@]3(F)[C@@H](O)C[C@@]21C` [FLUDROCORTISONE ACETATE], the AC50 (in test [1]; in [2]; in [3]; in test [4]; on Histamine H3 receptor; in [5]) was above 30 µM in each case. The AC50 at Histamine H2 receptor, at Endothelin-1 receptor and at B2 bradykinin receptor was above 30 µM each time.
For `Cc1ccc(S(=O)(=O)NC(=O)N[C@H]2[C@H]3CC[C@@](C)([C@H]2O)C3(C)C)cc1` [GLIBORNURIDE], the AC50 (in test [1]; in test [2]; in [3]; in test [4]; on Histamine H3 receptor; in test [5]) was above 30 µM each time. Also, the concentration at half-maximal activity (AC50) on Histamine H2 receptor, on Endothelin-1 receptor and at B2 bradykinin receptor was above 30 µM in each case.
Take `CCC(=O)O[C@H](CC(=O)O)C[N+](C)(C)C` [LEVOCARNITINE PROPIONATE]: the AC50 (in test [1]; in test [2]; in test [3]; in [4]; at Histamine H3 receptor; in [5]) was above 30 µM throughout. Moreover, the half-maximal activity concentration (AC50) at Histamine H2 receptor, at Endothelin-1 receptor and at B2 bradykinin receptor was above 30 µM each time.
Take `O=C(O)c1nn(Cc2ccc(Cl)cc2Cl)c2ccccc12` [LONIDAMINE]: the half-maximal activity concentration (AC50) (in [1]; in [2]; in test [3]; in [4]; on Histamine H3 receptor; in test [5]) was above 30 µM in each case. Moreover, the AC50 on Histamine H2 receptor, on Endothelin-1 receptor and at B2 bradykinin receptor was above 30 µM in each case.
On to `COC(=O)c1ccc2c(c1)NC(=O)/C2=C(\Nc1ccc(N(C)C(=O)CN2CCN(C)CC2)cc1)c1ccccc1` [NINTEDANIB], for which the half-maximal activity concentration (AC50) in [1] is 25 µM; in [2], above 30 µM; in [3], above 30 µM; in test [4], above 30 µM; on Histamine H3 receptor, above 30 µM; in test [5], above 30 µM. The figures for the AC50 at Histamine H2 receptor, at Endothelin-1 receptor and at B2 bradykinin receptor were above 30 µM, above 30 µM and above 10 µM, respectively.
For the compound `CCN(CC)Cc1nccn1-c1ccc([N+](=O)[O-])cc1C(=O)c1ccccc1Cl` [NIZOFENONE], the AC50 (in test [1]; in test [2]; in test [3]; in [4]; on Histamine H3 receptor; in test [5]) was above 30 µM in each case. Further, the AC50 at Histamine H2 receptor, on Endothelin-1 receptor and at B2 bradykinin receptor was above 30 µM throughout.
As for `CS(=O)(=O)NC(=O)CCC/C=C\C[C@H]1C(=O)C[C@@H](O)[C@@H]1/C=C/[C@@H](O)COc1ccccc1` [SULPROSTONE], the AC50 (in test [1]; in test [2]; in test [3]; in test [4]; at Histamine H3 receptor; in test [5]) was above 30 µM throughout. The AC50 at Histamine H2 receptor, on Endothelin-1 receptor and on B2 bradykinin receptor was above 30 µM each time.
